Experimental data as given in US20200261427A1 (Al Therapeutics, Inc., priority 2019, published 2020).
In brackets after ≈: the same amount, converted by molar mass.

Experiments:
[1] = Stability of rapamycin in solvents PG, TC, DMI; format: physicochemical; conditions: 0.2% w/w in DMI, 1 week at 5, 25, 40° C. (FIG. 3)
[2] = Solubility screening by gravimetric analysis; format: physicochemical
Protocol: Solubility screening was performed by gravimetric analysis. In a glass vial, known amounts of API were added to a known amount of solvent and the sample was rotated with a vial rotator (VWR) at room temperature. If the API completely dissolved, an additional known amount was added. The samples were rotated for at least 48 hours after the last API addition before determining the gravimetric result (i.e., greater than a % w/w or less than a % w/w).

[3] = Antioxidant screen in Transcutol; format: physicochemical
Protocol: Since there was significant degradation in diethylene glycol monoethyl ether (TC) after 1 week, and TC can generate peroxides, it was selected as the solvent for the antioxidant screen. […] (1) No antioxidant; […] […] The 4-week data at 40° C. was used to calculate the main effects of the two antioxidants and their interaction (Box et al., 1978) for the assay values. The positive effect of BHA (+23.8) was twice the positive effect of Vit. E (+11.6).

[4] = Saturation solubility in solvents and 10% co-solvent aqueous solutions
Protocol: (§1) All solutions were buffered with 5 mM citrate buffer at pH 4.5.

physchem = conditions: thermodynamic from solid
Protocol: as §1

[5] = pH stability screen of rapamycin in 1:1 ethanol:water; format: physicochemical; conditions: 0.1 mg/mL in 1:1 ethanol:water, pH 3, 5, unbuffered; 1 week at 5, 25, 40° C. (FIG. 2)
Protocol: 20 mM citrate buffers were prepared at pH 3, 5 and 7. With the exception of the pH 7 buffer, these buffers were miscible in 50% ethanol. Rather than reduce the buffer concentration to obtain a higher pH, the third solution was prepared with unbuffered water. An Orion 710A+ pH meter with a Thermo Scientific electrode was used for pH measurement.

[6] = Microscopic examination of rapamycin crystal growth; conditions: rectangular crystals in gels showing crystal growth

Rapamycin solubility % w/w ([2]; Diethylene glycol monoethyl ether (TC)): >13 % w/w | Rapamycin solubility % w/w ([2]; Diisopropyl adipate): <1.0 % w/w | Rapamycin solubility % w/w ([2]; Dimethyl isosorbide (DMI)): >7 % w/w | Rapamycin solubility % w/w ([2]; Hexylene glycol): <1.0 % w/w | Rapamycin solubility % w/w ([2]; Isopropyl myristate): <0.1 % w/w | Rapamycin solubility % w/w ([2]; Light mineral oil): <0.3 % w/w | Rapamycin solubility % w/w ([2]; Medium chain triglycerides): <0.1 % w/w | Rapamycin solubility % w/w ([2]; Octyldodecanol): <1.0 % w/w | Rapamycin solubility % w/w ([2]; PEG 400): <1.5 % w/w | Rapamycin solubility % w/w ([2]; Propylene glycol (PG), room temperature): <0.75 % w/w | Rapamycin Assay (% of Initial) ([3]; 0.002% Vit. E, 25° C., week 1): 98.3 % of Initial | Rapamycin Assay (% of Initial) ([3]; 0.002% Vit. E, 25° C., week 4): 98.2 % of Initial | Rapamycin Assay (% of Initial) ([3]; 0.002% Vit. E, 40° C., week 1): 96.8 % of Initial | Rapamycin Assay (% of Initial) ([3]; 0.002% Vit. E, 40° C., week 2): 97.0 % of Initial | Rapamycin Assay (% of Initial) ([3]; 0.002% Vit. E, 40° C., week 4): 82.2 % of Initial | Rapamycin Assay (% of Initial) ([3]; 0.01% BHA, 25° C., week 1): 99.2 % of Initial | Rapamycin Assay (% of Initial) ([3]; 0.01% BHA, 25° C., week 4): 98.3 % of Initial | Rapamycin Assay (% of Initial) ([3]; 0.01% BHA, 40° C., week 1): 97.1 % of Initial | Rapamycin Assay (% of Initial) ([3]; 0.01% BHA, 40° C., week 2): 98.1 % of Initial | Rapamycin Assay (% of Initial) ([3]; 0.01% BHA, 40° C., week 4): 94.4 % of Initial | Rapamycin Assay (% of Initial) ([3]; 0.2% w/w in Transcutol, No Antioxidant, 25° C., week 1): 95.7 % of Initial | Rapamycin Assay (% of Initial) ([3]; BHA + Vit. E, 25° C., week 1): 98.8 % of Initial | Rapamycin Assay (% of Initial) ([3]; BHA + Vit. E, 25° C., week 4): 98.7 % of Initial | Rapamycin Assay (% of Initial) ([3]; BHA + Vit. E, 40° C., week 1): 96.9 % of Initial | Rapamycin Assay (% of Initial) ([3]; BHA + Vit. E, 40° C., week 2): 98.7 % of Initial | Rapamycin Assay (% of Initial) ([3]; BHA + Vit. E, 40° C., week 4): 96.2 % of Initial | Rapamycin Assay (% of Initial) ([3]; No Antioxidant, 25° C., week 4): 84.6 % of Initial | Rapamycin Assay (% of Initial) ([3]; No Antioxidant, 40° C., week 1): 87.3 % of Initial | Rapamycin Assay (% of Initial) ([3]; No Antioxidant, 40° C., week 2): 79.0 % of Initial | Rapamycin Assay (% of Initial) ([3]; No Antioxidant, 40° C., week 4): 60.8 % of Initial | Rapamycin Solubility ([4]; 10% Diethylene Glycol Monoethyl Ether (TC), pH 4.5, 5 mM citrate): 4.6 µg/mL | saturation solubility ([4]; in TC): 15.5 % w/w | solubility (physchem; 10% TC and 10% DMI aqueous solutions versus water, pH 4.5, aqueous with cosolvent or surfactant or cyclodextrin): 1.5 to 2 µg/mL (≈ 1.64 to 2.19 µM) | solubility (physchem; 10% propylene glycol (PG) aqueous solution, citrate buffered, pH 4.5, aqueous with cosolvent or surfactant or cyclodextrin): 2.9 µg/mL (≈ 3.17 µM) | solubility (physchem; pH 4.5, aqueous with cosolvent or surfactant or cyclodextrin): 5.2 µg/mL (≈ 5.69 µM) | solubility (physchem; water, citrate buffered, pH 4.5, aqueous buffer): 2.9 µg/mL (≈ 3.17 µM) | rapamycin pH stability [5]: more stable at an acidic pH | length of rapamycin crystals grown [6]: 25-100 microns
Structure (SMILES): CO[C@H]1C[C@@H]2CC[C@@H](C)[C@@](O)(O2)C(=O)C(=O)N2CCCC[C@H]2C(=O)O[C@H]([C@H](C)C[C@@H]2CC[C@@H](O)[C@H](OC)C2)CC(=O)[C@H](C)/C=C(\C)[C@@H](O)[C@@H](OC)C(=O)[C@H](C)C[C@H](C)/C=C/C=C/C=C/1C [Rapamycin, rapamycin]
solvent compatibility (solution stability) [1]: most compatible with propylene glycol (PG) and least compatible with dimethyl isosorbide (DMI)
